Test results taken from patent US20070293486A1, “Alpha-Keto Carbonyl Calpain Inhibitors” (SANTHERA PHARMACEUTICALS (SCHWEIZ) AG, priority 2004, published 2007).

Columns and labels:
[1] = target: T1, 20S Proteasome (Oryctolagus cuniculus, UniProt G1T4Q9); assay: 20S Proteasome Assay; format: biochemical; details: Rabbit, read-out: 20S Prot IC50
T1 sequence (G1T4Q9 1-263): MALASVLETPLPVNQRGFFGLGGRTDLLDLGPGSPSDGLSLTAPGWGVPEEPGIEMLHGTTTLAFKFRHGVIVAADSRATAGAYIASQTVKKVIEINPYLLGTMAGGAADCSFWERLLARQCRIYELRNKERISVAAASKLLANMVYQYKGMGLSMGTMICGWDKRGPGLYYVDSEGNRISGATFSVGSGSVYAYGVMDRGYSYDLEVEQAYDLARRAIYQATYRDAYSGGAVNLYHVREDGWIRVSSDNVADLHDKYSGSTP
Procedure: 25 μl of a reaction buffer containing 400 μM of the fluorogenic substrate Suc-Leu-Leu-Val-Tyr-AMC (Bachem) are dispensed per well of a white microtiter plate. Test compounds dissolved in 0.5 μl DMSO are added. To start the reaction; 25 μl of reaction buffer containing 35 ng of enzyme (20S Proteasome, Rabbit, Calbiochem) are added. The increase in fluorescence (excitation at 360 nm; emission at 440 nm) is measured over 30 min at 30° C. at 30″. The IC50's are then determined from the slopes.

[2] = target: T2, human μ-calpain (Homo sapiens, UniProt P07384); assay: Enzymatic Calpain Inhibition Assay; format: biochemical; details: enzymatic calpain I inhibition; read-out: Calp I IC50
T2 construct: purchased Calbiochem
T2 sequence (P07384 1-714): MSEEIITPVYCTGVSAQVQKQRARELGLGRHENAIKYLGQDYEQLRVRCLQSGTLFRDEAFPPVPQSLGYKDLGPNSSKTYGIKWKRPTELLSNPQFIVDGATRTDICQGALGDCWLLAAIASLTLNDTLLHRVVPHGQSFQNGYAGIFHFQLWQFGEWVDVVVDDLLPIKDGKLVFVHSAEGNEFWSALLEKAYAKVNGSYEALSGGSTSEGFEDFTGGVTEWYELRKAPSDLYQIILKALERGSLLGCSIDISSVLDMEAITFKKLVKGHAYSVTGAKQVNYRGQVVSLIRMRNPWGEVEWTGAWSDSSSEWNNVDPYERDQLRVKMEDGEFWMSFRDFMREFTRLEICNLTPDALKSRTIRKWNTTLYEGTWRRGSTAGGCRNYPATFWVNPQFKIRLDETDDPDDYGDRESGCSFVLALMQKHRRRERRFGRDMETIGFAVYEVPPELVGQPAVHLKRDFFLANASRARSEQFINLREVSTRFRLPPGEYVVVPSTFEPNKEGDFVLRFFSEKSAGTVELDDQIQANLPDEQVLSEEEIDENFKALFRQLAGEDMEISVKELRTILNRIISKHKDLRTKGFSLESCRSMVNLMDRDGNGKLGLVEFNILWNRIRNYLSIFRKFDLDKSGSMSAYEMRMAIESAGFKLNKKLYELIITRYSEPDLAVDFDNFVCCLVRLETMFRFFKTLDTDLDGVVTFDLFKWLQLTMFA
T2 sequence (P04632 1-268 partner): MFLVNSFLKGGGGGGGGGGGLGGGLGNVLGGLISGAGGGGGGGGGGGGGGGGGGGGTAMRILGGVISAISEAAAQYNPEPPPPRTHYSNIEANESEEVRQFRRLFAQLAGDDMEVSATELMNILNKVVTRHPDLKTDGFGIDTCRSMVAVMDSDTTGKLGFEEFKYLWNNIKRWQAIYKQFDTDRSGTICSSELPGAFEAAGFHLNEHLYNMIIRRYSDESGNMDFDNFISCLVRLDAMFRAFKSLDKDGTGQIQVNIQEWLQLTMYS
Procedure: The Ki value was also determined in some cases. These criteria were used to measure the inhibitory effect of the compounds (I) on calpain I, calpain II and cathepsin B.
The inhibitory properties of calpain inhibitors are tested in 100 μl of a buffer containing 100 mM imidazole pH 7.5, 5 mM L-Cystein-HCl, 5 mM CaCl2, 250 μM of the calpain fluorogenic substrate Suc-Leu-Tyr-AMC (Sigma) (Sasaki et al., J. Biol. Chem., 1984, 259, 12489-12949) dissolved in 2.5 μl DMSO and 0.5 μg of human μ-calpain (Calbiochem). The inhibitors dissolved in 1 μl DMSO are added to the reaction buffer. The fluorescence of the cleavage product 7-amino-4-methylcoumarin (AMC) is followed in a SPECTRAmax GEMINI XS (Molecular Device) fluorimeter at λex=360 nm and λem=440 nm at 30° C. during 30 min at intervals of 30 sec in 96-well plates (Greiner). The initial reaction velocity at different inhibitor concentrations is plotted against the inhibitor concentration and the IC50 values determined graphically.

[3] = tested on: utrophin protein levels in human DMD myotubes; assay: Utrophin Expression Assay in Human Myotubes; format: cell-based; details: 50 nM test compound
Procedure: Utrophin induction was determined by a method which was similar to a method of 1. Courdier-Fruh et al., Neuromuscular Disord., 2002, 12, S95-S104. Primary human muscle cell cultures were prepared from muscle biopsies taken during orthopedic surgery from Duchenne patients (provided by the Association Francaise contre les Myopathies). Cultures were prepared and maintained according to standard protocols. Induction of utrophin expression in human DMD myotubes was assayed at 50 nM or 500 nM of test compound added in differentiation medium. Normalized utrophin protein levels are determined after 56 d of incubation by cell-based ELISA with a mouse monoclonal antibody to the aminoterminal portion of utrophin (NCL-DRP2, Novocastra Laboratories). For calibration, the cell density and differentiation was determined by absorbance measurements of the total dehydrogenase enzyme activity in each well using the calorimetric CellTiter 96®AQ One Solution Reagent Proliferation Assay (Promega) according to the manufacturer's recommendation. Subsequently, cells were fixed, washed, permeabilized with 0.5% (v/v) Triton X-100 and unspecific antibody binding-sites blocked by standard procedures. Utrophin protein levels were determined immunologically with utrophin-specific primary antibody and with an appropriate peroxidase-coupled secondary antibody (Jackson ImmunoResearch Laboratories) using QuantaBlu™ Fluorogenic Peroxidase Substrate Kit (Pierce) for detection. Fluorescence measurements were carried out with a multilabel counter (Wallac) at λex=355 nm and at λem=460 nm. The primary readout of this signal is presented in arbitrary units. For calibration, the arbitrary units representing the relative utrophin protein content of each well was divided by the corresponding cell-titer absorbance value to correct for cell density. For comparison between experiments, the cell-titer corrected readout for utrophin protein content in each well was expressed in percent of solvent treated control cultures (set to 100%), i.e. data are % utrophin protein levels compared to DMSO solvent (N=4).

[4] = tested on: cellular calpains in C2C12 myoblasts; assay: Calpain Inhibition Assay in C2C12 Myoblasts; format: cell-based; details: read-out: Calp I IC50 Myoblast
Procedure: This assay is aimed at monitoring the ability of the substance to inhibit cellular calpains. C2C12 myoblasts are grown in 96-well plates in growth medium (DMEM, 20% foetal calf serum) until they reach confluency. The growth medium is then replaced by fusion medium (DMEM, 5% horse serum). 24 hours later the fusion medium is replaced by fusion medium containing the test substances dissolved in 1 μl DMSO. After 2 hours of incubation at 37° C. the cells are loaded with the calpain fluorogenic substrate Suc-Leu-Tyr-AMC at 400 μM in 50 μl of a reaction buffer containing 135 mM NaCl; 5 mM KCl; 4 mM CaCl2; 1 mM MgCl2; 10 mM Glucose; 10 mM HEPES pH 7.25 for 20 min at room temperature. The calcium influx, necessary to activate the cellular calpains, is evoked by the addition of 50 μl reaction buffer containing 20 μM of the calcium ionophore Br-A-23187 (Molecular Probes). The fluorescence of the cleavage product AMC is measured as described above during 60 min at 37° C. at intervals of 1 min. The IC50 values are determined as described above. Comparison of the IC50 determined in the enzymatic calpain inhibition assay to the IC50 determined in the C2C12 myoblasts calpain inhibition assay, allows to evaluate the cellular uptake or the membrane permeability of the substance.

[5] = tested on: experimental muscular dystrophy in hamster; details: Journal of Pharmacobiodynamics, 1987, 10, 678; cited from earlier work

| IC50 [1] [nM] | melting point [°C] | IC50 [2] [nM] | IC50 [4] [nM] | Compound | UTR Induction @50 nM [3] [%] | life-prolonging effect in experimental muscular dystrophy [5] |
| --- | --- | --- | --- | --- | --- | --- |
| 10 | 190 to 192 | 16 | 28 | CCNC(=O)C(=O)C(Cc1ccc(OC)cc1)NC(=O)C(NC(=O)C(Cc1csc2ccccc12)NC(=O)CCCCC1CCS[S+]1[O-])C(C)C (stereo not shown) [Example 606] | 151 | – |
| – | – | – | – | CCOC(=O)[C@H]1O[C@@H]1C(=O)N[C@@H](CC(C)C)C(=O)NCCC(C)C [Example E-64-d] | – | life-prolonging effect |
| – | – | 45 | 200 | CCNC(=O)C(=O)[C@H](Cc1ccc(Cl)cc1)NC(=O)[C@@H](NC(=O)[C@H](Cc1ccccc1)NC(=O)CCCCC1CCSS1)C(C)C (stereo partly shown) [Example 1] | – | – |
| 27 | 220 | 35 | 20 | CCNC(=O)C(=O)C(Cc1ccccc1)NC(=O)C(NC(=O)C(Cc1cccc2ccccc12)NC(=O)CCCCC1CCSS1)C(C)C (stereo not shown) [Example 735] | 134 | – |
